Assay results taken from patent EP0462621A2, “Use of particular compounds for manufacture of pharmaceutical formulations for treatment against various parasites, mycoplasmas, other indications and other infections” (Prendergast, Patrick Thomas, priority 1990, dated 1991).

Columns and labels:
T. cruzi [1] = experiment: T. cruzi intracellular amastigote (AM) in-vitro screen; assay type: cell-based
Description: Dividing populations can be cultivated in muscle cells, fibroblasts and macrophages, following infection with trypomastigotes. After the initial infection, there is normally a period of 4-5 days during which the amastigotes divide before transforming, via the epimastigote stage, back to trypomastigotes which escape from the cell. Drug activity is measured during this 4-5 day period. A dividing host cell population, low infection rate, and the presence of trypomastigotes in the overlay can complicate the interpretation of results.
Intracellular amastigote models can use a range of muscle (skeletal and cardiac) and fibroblast (e.g. HeLa, HePa) cell lines, macrophages, and chick embryo cells. […] To overcome the problems of overgrowth of the monolayer and a low percentage of infected cells, often associated with the use of cell lines, irradiated rat L6 myoblasts are used.

L major/L mexicana [2] = experiment: Amastigotes (AM) in mouse or human macrophages (mos), in-vitro; assay type: cell-based; details: Lm., Amastigote
Source text: (§1) Amastigotes of Leishmania can be cultivated in a wide range of mammalian cells, some of which may be used in in-vitro screens. These include (1) a Sticker dog sarcoma (fibroblast) cell line, (2) transformed rodent macrophage cell lines, (3) primary isolated mouse peritoneal macrophages (MP mo), and (4) human monocyte-derived macrophages (HM mo). The methods are similar for all models. Amastigote or promastigote infected cells are maintained in a medium containing the drug for 4-7 days, at 37 C for L. donovani and 33-35 C for L. major and L. mexicana. Drug activity is then assessed by counting (I) the number of infected host cells and/or (II) the number of amastigotes/100 host cells.
(§2) In-vitro and in-vivo models were used to test activities of a selection of many compounds. Those activities are summarized in Tables 1-3, showing variation between systems and species. Activities measured in the MP mo and HM mo models have shown the best correlation with results obtained in hamster and mouse models.

L donovani [3] = experiment: as above; assay type: cell-based; details: Ld., Amastigote
Source text: as §1, §2

L major/L mexicana [4] = experiment: Amastigotes (AM) in cell lines, in-vitro; assay type: cell-based; details: Lm., Amastigote; also: key: - no/poor activity,; + fair/moderate activity,; ++ good/excellent activity
Source text: as §1, §2

L donovani [5] = experiment: Amastigotes (AM) in cell lines, in-vitro; assay type: cell-based; details: Ld., Amastigote; also: key: - no/poor activity,; + fair/moderate activity,; ++ good/excellent activity
Source text: as §1, §2

T. cruzi [6] = experiment: T. cruzi epimastigote (EPI) in-vitro screen; assay type: cell-based
Description: (§5) In-vitro chemotherapy screens have for many years used models involving three stages of the T. cruzi life cycle: • (1) Epimastigote. Dividing populations are easily cultivated in a range of defined and semi-defined media, but are equivalent to a vector stage of the life cycle. • (2) Trypomastigote. These are isolated from a rodent host and can be maintained as a non-dividing population for 24-48 h in media. • (3) Amastigote. Dividing populations can be cultivated in muscle cells, fibroblasts and macrophages, following infection with trypomastigotes. After the initial infection, there is normally a period of 4-5 days during which the amastigotes divide before transforming, via the epimastigote stage, back to trypomastigotes which escape from the cell. Drug activity is measured during this 4-5 day period. A dividing host cell population, low infection rate, and the presence of trypomastigotes in the overlay can complicate the interpretation of results.

[7] = test system: T.b. brucei, T.b. gambiense and T.b. rhodesiense; experiment: Cultivated bloodstream trypomastigote (TRY) in-vitro screen; assay type: cell-based
Source text: Culture systems developed in the last decade have used mammalian cell feeder layers to support the growth of dividing populations of bloodstream trypomastigotes of T. brucei spp. Some of these systems have been used in chemotherapy studies, including; (1) bovine fibroblast culture - T. brucei models to test some standard and experimental compounds, (2) murine bone marrow culture - T.b. gambiense model to screen inosine analogues and platinum and hypolipidemic compounds, and (3) Microtus embryonic fibroblast culture (MEF) - T.b. rhodesiense model to test standard and experimental drugs. These systems give a good indication of in-vivo activity (see Table 3). They measure activity against dividing cells rather than specific macromolecular synthesis pathways and can be readily established in micro-titre plates. The MEF and bone marrow cell feeder layers can be used to grow a range of strains of T. brucei spp., offering the possibility of examining variations in drug susceptibility and resistance between strains. The presence of a feeder layer, however, limits the opportunities for the automation of these systems.
as §2

L major/L mexicana [8] = experiment: Leishmania mouse/hamster models, in-vivo; details: Lm. Also: key: - no/poor activity,; + fair/moderate activity,; ++ good/excellent activity.
Source text: as §2

L donovani [9] = experiment: Leishmania mouse/hamster models, in-vivo; details: Ld. Also: key: - no/poor activity,; + fair/moderate activity,; ++ good/excellent activity.
Source text: as §2

T. cruzi [10] = experiment: T. cruzi mouse model, in-vivo
Source text: as §2

[11] = test system: T.b. brucei, T.b. gambiense and T.b. rhodesiense; experiment: Procyclic trypomastigote (TRY) in-vitro screen; assay type: cell-based; also: key: - no/poor activity,; + fair/moderate activity,; ++ good/excellent activity
Description: (§3) Primary screening for new trypanocides has made extensive use of rodent systems, in which host survival time is a simple indicator of drug activity. In-vitro screens have used a variety of trypomastigote types (see Table 3, below). […] Most early in-vitro screens employed a short test in which bloodstream trypomastigotes were isolated from an infected rodent and maintained for up to 24 h in a simple drug-containing media. Two significant modifications of this technique include maintaining isolated bloodstream trypomastigotes in drug-containing media for 3-4 hours at 37° C in micro-titre plates and their subsequent viability assessed by the uptake of radiolabelled precursors or motility and infectivity to mice.
as §2

L major/L mexicana [12] = experiment: Amastigote-promastigote (AM-PRO) transformation, in-vitro; assay type: cell-based; details: Lm.
L major/L mexicana [13] = experiment: Leishmania promastigote (PRO) in-vitro screen; assay type: cell-based; details: Lm.
Source text: (§4) Following initial infection, the amastigote is the only form present in the mammalian host, surviving and dividing in various macrophage populations. Differences between the promastigote and amastigote in form and habitat are not matched by known biochemical dissimilarities. However, the drug susceptibility of the cultured promastigote, used in many early chemotherapy screens, contrasts markedly with that of the amastigote (see Table 1, below), most importantly to the clinically used pentavalent antimonials - sodium stibogluconate (Pentostam) and meglumine antimoniate (Glucantime).
as §1, §2

L donovani [14] = experiment: Leishmania promastigote (PRO) in-vitro screen; assay type: cell-based; details: Ld.
Source text: as §4, §1, §2

T. cruzi [15] = experiment: T. cruzi trypomastigote (TRY) in-vitro screen; assay type: cell-based
Description: as §5

[16] = test system: T.b. brucei, T.b. gambiense and T.b. rhodesiense; experiment: Isolated bloodstream trypomastigote (TRY) in-vitro screen; assay type: cell-based
Description: as §3
In-vitro studies on isolated bloodstream trypomastigotes were also used in the rational biochemical approaches towards the chemotherapy of T. brucei infections involving inhibitors of carbohydrate catabolism salicyl hydroxamic acid plus glycerol), of polyamine synthesis (methylgyoxal bis-guanylhydrazone and - DFMO), and of surface coat glycoprotein synthesis (Tunicamycin). In these studies, activity of the compounds are shown in-vitro and in-vivo, whereas the sensitivity of isolated bloodstream trypomastigotes to toxic oxygen radicals generated by naphthoquinones was not shown by the parasites in mice. The activity of the standard anti-trypanosomals-melarsoprol, pentamidine and suramin and tested compounds according to the present invention in in-vitro systems is shown in Table 3.
as §2

L donovani [17] = experiment: Amastigote-promastigote (AM-PRO) transformation, in-vitro; assay type: cell-based; details: Ld.
[18] = test system: T.b. brucei, T.b. gambiense and T.b. rhodesiense; experiment: African trypanosomiasis mouse model, in-vivo
Description: as §3, §2

Row | SMILES | activity, intracellular AM (T. cruzi [1]; T. cruzi strain Sonya) | activity, intracellular AM (T. cruzi [1]; T. cruzi strain Y) | Activity, AM in mouse or human mos (L major/L mexicana [2]) | Activity, AM in mouse or human mos (L donovani [3]) | Activity, AM in cell lines (L major/L mexicana [4]) | Activity, AM in cell lines (L donovani [5]) | activity, EPI (T. cruzi [6]; T. cruzi strain MR) | activity, EPI (T. cruzi [6]; T. cruzi strain Sonya) | activity, EPI (T. cruzi [6]; T. cruzi strain Y) | activity, cultivated bloodstream TRY [7] | Activity, mouse/ hamster models (L major/L mexicana [8]) | Activity, mouse/ hamster models (L donovani [9]) | activity, mouse model (T. cruzi [10]; T. cruzi strain Sonya) | activity, mouse model (T. cruzi [10]; T. cruzi strain Y) | activity, procyclic TRY [11] | Activity, AM-PRO transform-ation (L major/L mexicana [12]) | Activity, PRO (L major/L mexicana [13]) | Activity, PRO (L donovani [14]) | activity, TRY (T. cruzi [15]; T. cruzi strain Sonya) | activity, TRY (T. cruzi [15]; T. cruzi strain Y) | further results
1 | OC[C@H]1O[C@@H](n2cnc3c(NCc4ccco4)ncnc32)[C@H](O)[C@@H]1O [Furfuryladenosine] | + (Y,Sonya) | + (Y,Sonya) | + + | + | + | - | ++(Y,MR, Sonya) | ++(Y,MR, Sonya) | ++(Y,MR, Sonya) | + | + | + | + | ++ | + | + + | + + | + + | + (Y,Sonya) | + (Y,Sonya) | activity, isolated bloodstream TRY [16]: + +; Activity, AM-PRO transform-ation (L donovani [17]): + +
2 | OC[C@H]1O[C@@H](n2cnc3c(NCc4ccccc4)ncnc32)[C@H](O)[C@@H]1O [N6-Benzyladenosine, N^6-benzyladenosine] | + (Y,Sonya) | + (Y,Sonya) | + | + | + | - | +(Y,MR, Sonya) | +(Y,MR, Sonya) | +(Y,MR, Sonya) | + + | - | - | +(Y)+(Sonya) | +(Y)+(Sonya) | + + | + + | + + | + + | + (Y,Sonya) | + (Y,Sonya) | activity, mouse model [18]: + +; Activity, AM-PRO transform-ation (L donovani [17]): + +
3 | CC(C)=CCNc1ncnc2c1ncn2[C@@H]1O[C@H](COP(=O)(O)O)[C@@H](O)[C@H]1O [N6-Isopentenyl Adenosine-5'monophosphate, N^6-(Δ^2-isopentenyl) adenosine-5'-monophosphate] | ++(Y,Sonya) | ++(Y,Sonya) | + + | + | + | - | +(Y,MR, Sonya) | +(Y,MR, Sonya) | +(Y,MR, Sonya) | + | - | + | + | ++ | + + | + + | - | + + | ++(Y,Sonya) | ++(Y,Sonya) | activity, mouse model [18]: +; activity, isolated bloodstream TRY [16]: +; Activity, AM-PRO transform-ation (L donovani [17]): +
4 | Cc1ccc(C(=O)Nc2ccc(S(=O)(=O)O)c3cc(S(=O)(=O)O)cc(S(=O)(=O)O)c23)cc1NC(=O)c1cccc(NC(=O)Nc2cccc(C(=O)Nc3cc(C(=O)Nc4ccc(S(=O)(=O)O)c5cc(S(=O)(=O)O)cc(S(=O)(=O)O)c45)ccc3C)c2)c1 [Suramin, suramin, reference compound] |  |  |  |  |  |  |  |  |  | + |  |  |  |  | - |  |  |  |  |  | activity, mouse model [18]: + +; activity, isolated bloodstream TRY [16]: -,+
